Laboratory results: US11821027B2, “Epigenetic analysis of cell therapy and related methods” (Juno Therapeutics, Inc., priority 2017, dated 2023)

Assays:
[1] = system: Anti-BCMA CAR-expressing T cells; assay: RNA-seq gene expression in stimulated anti-BCMA CAR T cells in the presence or absence of lenalidomide; assay type: cell-based
Description: (§1) Anti-BCMA CAR-expressing T cells, generated from four (4) different independent donors, were stimulated with 50 μg/mL BCMA-conjugated beads for 24 hours (24 hr+stim) or 7 days (d7+stim), or cultured without stimulation for 24 hours (24 hr), in the presence or absence of lenalidomide. The CAR-expressing cells were assessed by RNA sequencing (RNA-seq) for gene expression and assayed for transposase-accessible chromatin using sequencing (ATAC-seq) for chromatin accessibility analysis.
(§2) RNA-seq was performed on the complementary DNA (cDNA) samples prepared from the RNA isolated from the cultured anti-BCMA CAR-expressing cells. ATAC-seq was performed generally as described in Buenrostro et al., Nat Methods. (2013) 10(12): 1213-1218. […]
(§3) Principal component analysis (PCA) was performed for the RNA-seq and ATAC-seq data sets, generated from DESeq2-normalized counts. Differential expression (DE, for RNA-seq) or consensus peak accessibility (DA, for ATAC-seq) were calculated, modeling donor effects (Donors 1-4) and treatment effects (lenalidomide vs. vehicle) at 24 hours and day 7. […] Gene ontology (GO) enrichment analysis was performed and activation z-score was determined on the subset of genes differentially expressed at q≤0.1 using Ingenuity Pathway Analysis software (Qiagen, Inc.), accounting for donor effects within each treatment condition.

[2] = system: Anti-BCMA CAR-expressing T cells; assay: ATAC-seq chromatin accessibility in stimulated anti-BCMA CAR T cells in the presence or absence of lenalidomide; assay type: cell-based
Description: as §1, §2, §3

SMILES: Nc1cccc2c1CN(C1CCC(=O)NC1=O)C2=O (stereo not shown) [lenalidomide]
- effect on biological signaling pathways (differentially expressed genes) ([1]; 24 hours or 7 days with stimulation, Ingenuity Pathway Analysis): increased expression of genes involved in T cell activation and signaling
- total genes altered as shown by gene expression changes ([1]; 7 days of culture with BCMA-conjugated bead stimulation, lenalidomide vs. vehicle, 4 donors, cut off q≤0.05 and log 2 fold change≥0.5): 583 genes
- chromatin accessibility peaks changed ([2]; 7 days of culture with BCMA-conjugated bead stimulation, lenalidomide vs. vehicle, 4 donors, cut off q≤0.1): 2804 peaks
- motif enrichment analysis of peaks (transcription factor binding motifs of T cell activation and signaling) ([2]; day 7 cultures with stimulation, HOMER, consensus peakset as background): enriched in peaks with increased accessibility
